According to US20080275076A1, “Pharmaceutical Compositions Comprising Sirolimus and/or an Analogue Thereof” (priority 2005, published 2008):
Like-named read-outs stand apart in the source and are kept apart here.

Key:
[1] = cited from earlier work
[2] = Solubility of sirolimus in various vehicles at 70° C. (visual inspection); type: physicochemical
Protocol: In the following table is given the solubility of sirolimus in various vehicles (please note that the solubility is determined by visual inspection): […]

CO[C@H]1C[C@@H]2CC[C@@H](C)[C@@](O)(O2)C(=O)C(=O)N2CCCC[C@H]2C(=O)O[C@H]([C@H](C)C[C@@H]2CC[C@@H](O)[C@H](OC)C2)CC(=O)[C@H](C)/C=C(\C)[C@@H](O)[C@@H](OC)C(=O)[C@H](C)C[C@H](C)/C=C/C=C/C=C/1C [Sirolimus]
mean time-to-peak concentration (tmax) ([1]; multiple oral doses in renal transplant recipients): approximately 2 hours | mean time-to-peak concentration (tmax) ([1]; oral, single dose in healthy subjects): approximately 1 hour | % Sirolimus dissolved 70° C. ([2]; vehicle Gelucire 44/14): 2.5% | % Sirolimus dissolved 70° C. ([2]; vehicle Monomuls 90 35): 2.2% | % Sirolimus dissolved 70° C. ([2]; vehicle Monomuls 90L12): 3.9% | % Sirolimus dissolved 70° C. ([2]; vehicle Monomuls 90 L12/Rylo MD50 (10:90)): 2.5% | % Sirolimus dissolved 70° C. ([2]; vehicle PEG 6000): 1.5% | % Sirolimus dissolved 70° C. ([2]; vehicle PEG 6000/Poloxamer 188 (70:30)): 2.4% | % Sirolimus dissolved 70° C. ([2]; vehicle Poloxamer 188): 1.0% | % Sirolimus dissolved 70° C. ([2]; vehicle Rylo MD50): 1.5%
